Several values for one entry are separate records, joined by “and”; a condition that tells them apart may be missing. Equal entries are not always repeated.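 How tested: cells in 96-well plates exposed to compound for 48 hours at five concentrations. At the GI50, growth is halved. Definition used: TGI = concentration required for complete inhibition of growth.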

Test systems include MDA-MB-468 breast; 786-0 renal; A498 renal; A549 NSCLC; ACHN renal; BT-549 breast; CAKI-1 renal; CCRF-CEM leukemia; COLO 205 colon; DU-145 prostate; EKVX NSCLC; HCC-2998 colon; HL-60(TB) leukemia; HS 578T breast; IGROV1 ovarian; K-562 leukemia; LOX IMVI melanoma; M14 melanoma; MALME-3M melanoma; MOLT-4 leukemia; NCI-H226 lung; NCI-H522 lung; NCI/ADR-RES ovarian; OVCAR-5 ovarian; RPMI-8226 leukemia; RXF 393 renal; SF-295 CNS; SK-MEL-5 melanoma; SK-OV-3 ovarian; SN12C renal; SR leukemia; T-47D breast; TK-10 renal; UACC-257 melanoma; UACC-62 melanoma; UO-31 renal.

What all share (experiment): inhibition of tumour cell growth, NCI panel, 48 h

For the molecule `Cc1ccc(S(=O)(=O)Nc2nc3ccccc3nc2Nc2ccc3nsnc3c2)cc1`, in the experiment with MDA-MB-468 breast, the GI50 is 3.06 µM and 2.66 µM; the TGI is 13.5 µM and 9.26 µM.

Consider `C=C1CC[C@@H]2[C@](C)(COC(C)=O)[C@H](OC(C)=O)CC[C@@]2(C)[C@@H]1C/C=C1/C(=O)OC[C@H]1OC(C)=O`, for which, in the experiment on MDA-MB-468 breast, the GI50 was 2.04 µM and the TGI turned out to be 5.69 µM.

On to `O=C(N/N=C\c1ccc(N(CCCl)CCCl)cc1Cl)c1cccnc1`, for which, in the experiment on MDA-MB-468 breast, the GI50 was 0.0458 µM and the TGI is 0.328 µM.

In the case of `O=Cc1ccc(O)c2ncccc12`, in the experiment on MDA-MB-468 breast, the GI50 was 4.14 µM and the TGI was more than 100 µM.

Turning to `C=CC(=O)Nc1cccc(C)c1Nc1ncc2cc(-c3c(Cl)c(OC)cc(OC)c3Cl)ccc2n1`, in the experiment on MDA-MB-468 breast, the GI50 was 1.87 µM and the TGI is 6.28 µM.

As for `NCCCCN(Cc1nc2ccccc2[nH]1)[C@H]1CCCc2cccnc21`, in the experiment on MDA-MB-468 breast, the GI50 was 10.4 µM and the TGI is 30.8 µM.

In the case of `CS(=O)(=O)Nc1cc(-c2ccc3ncnc(Nc4ccc5c(cnn5Cc5ccccc5F)c4)c3c2)cnc1Cl`, in the experiment with MDA-MB-468 breast, the GI50 is 0.609 µM and the TGI came to 2.56 µM.

In the case of `CCCCCN(CCCCC)CC(O)c1cc2c(c3ccccc13)CCCC2` (centres undefined), in the experiment with MDA-MB-468 breast, the GI50 was 4.34 µM and 12.2 µM; the TGI is 17.2 µM and 28 µM.

As for `Cc1nn(-c2nc3ccccc3[nH]2)c2c1C(c1ccc3c(c1)OCO3)CC(=O)N2` (centres undefined), in the experiment with MDA-MB-468 breast, the GI50 is 2.32 µM and the TGI is 6.76 µM.

`Clc1ccc2c(c1)-c1ccccc1C1=NCCN12`: in the experiment with MDA-MB-468 breast, the GI50 was 1.54 µM and the TGI is 3.15 µM.

Turning to `C=C1C(=O)O[C@H]2[C@H]1CC/C(CNS(=O)(=O)c1cccc3ccccc13)=C\CC[C@@]1(C)O[C@@H]21`, in the experiment on MDA-MB-468 breast, the GI50 is 1.09 µM and the TGI was 3.15 µM.

Consider `COc1ccc(/C=C/C(=O)c2cc3c(N)c(C(=O)Nc4ccccc4)sc3nc2C)cc1`, for which, in the experiment with MDA-MB-468 breast, the GI50 is 0.179 µM and the TGI is more than 41.7 µM.

Consider `CCC(C)[C@H]1C(=O)O[C@H](C(C)C)C(=O)N(C)[C@@H](C(C)C)C(=O)O[C@H](C(C)C)C(=O)N(C)[C@@H](C(C)C)C(=O)O[C@H](C(C)C)C(=O)N1C` (some centres undefined), for which, in the experiment with MDA-MB-468 breast, the GI50 was 0.542 µM and the TGI was more than 10 µM.

For the molecule `CCOC(=O)C#Cc1c(CC(=O)OCC)nnn1[C@H]1O[C@@H](CO)[C@@H]2OC(C)(C)O[C@@H]21`, in the experiment on MDA-MB-468 breast, the GI50 is 2.09 µM and the TGI came out at 4.5 µM.

With `COc1cccc2c(=O)c3c(sc12)c(NCCN(C)C)nc1ccccc13`, in the experiment with MDA-MB-468 breast, the GI50 is 1.5 µM and the TGI was 3.15 µM.

As for `COc1ccc([C@H]2[C@H](O)C(=O)N2c2cc(OC)c(OC)c(OC)c2)cc1Cl`, in the experiment on MDA-MB-468 breast, the GI50 is less than 0.01 µM and the TGI is more than 100 µM.

As for `CCCCCCCCCCCC[n+]1ccc(C(N)=O)cc1`, in the experiment on MDA-MB-468 breast, the GI50 was 0.633 µM and the TGI is 2.92 µM.

As to `N#CC1=C(N)Oc2c(sc3c(F)cccc23)C1c1ccc(F)cc1` (centres undefined), in the experiment with MDA-MB-468 breast, the GI50 is 0.452 µM and the TGI stood at 15.4 µM.

Take `OC(CNC1CCCC1)Cn1c2ccccc2c2ccccc21` (centres undefined): in the experiment with MDA-MB-468 breast, the GI50 is 40.7 µM and the TGI was more than 100 µM.

`COC(=O)[C@@]1(O)C[C@H]2O[C@]1(C)n1c3ccccc3c3c4c(c5c6ccccc6n2c5c31)C(=O)NC4`: in the experiment with MDA-MB-468 breast, the GI50 is 1.34 µM and the TGI came out at 3.06 µM.

For `CN(C)c1ccc(O)c2c1C[C@H]1C[C@H]3[C@H](N(C)C)C(=O)C(C(N)=O)=C(O)[C@@]3(O)C(=O)C1=C2O`, in the experiment with MDA-MB-468 breast, the GI50 was 3.24 µM and the TGI amounted to 35.1 µM.

`Oc1ccc(N=Nc2ccc(N=Nc3ccccc3)cc2)cc1`: in the experiment with MDA-MB-468 breast, the GI50 was 4.41 µM and the TGI is 19.6 µM.

Consider `COc1ccc2c(c1)OC(N)=C(C#N)C2c1ccc(F)cc1` (centres undefined), for which, in the experiment with MDA-MB-468 breast, the GI50 is 0.401 µM and the TGI is 33.9 µM.

Regarding `OC(CNc1ccnc2cc(Cl)ccc12)CNC1CCCCC1` (centres undefined), in the experiment with MDA-MB-468 breast, the GI50 is 1.7 µM and the TGI amounted to 3.79 µM.

Take `COC(=O)[C@@H](C)C[C@H](Cc1ccccc1)NC(=O)c1csc([C@@H](C[C@H](C(C)C)N(C)C(=O)C2(NC(=O)[C@H]3CCCCN3C)CC2)OC(C)=O)n1`: the GI50 in the experiment with MDA-MB-468 breast was 0.00251 µM.

In the case of `CCCN(CCC)C(=O)[C@H](CC)[C@@H]1CC[C@@H](C)[C@@H]([C@H](C)[C@@H](O)[C@@H](C)C(=O)[C@H](CC)C2O[C@]3(C=C[C@@H](O)[C@]4(CC[C@@](C)([C@H]5CC[C@](O)(CC)[C@H](C)O5)O4)O3)[C@H](C)C[C@@H]2C)O1` (some centres undefined), in the experiment on MDA-MB-468 breast, the GI50 is 1.72 µM and the TGI was found to be 5.33 µM.

In the case of `COc1ccc2nc(C)cc(Nc3ccccc3O)c2c1`, in the experiment with MDA-MB-468 breast, the GI50 is 13.8 µM and the TGI came out at 45.6 µM.

As for `O=C(CCCCCCC(=O)Nc1ccc2c(c1)/C(=C/c1ccc[nH]1)C(=O)N2)NO`, in the experiment with MDA-MB-468 breast, the GI50 was 0.187 µM and the TGI is 2.09 µM.

As for `O=C1/C(=C/c2ccc(Cl)cc2)COc2ccc(O)c(O)c21`, in the experiment with MDA-MB-468 breast, the GI50 is 1.43 µM and the TGI was 3.22 µM.

For `O=C(/C=C/c1ccc(C(F)(F)F)cc1)c1ccc(Nc2nc(NCCO)nc(N3CCOCC3)n2)cc1`, in the experiment on MDA-MB-468 breast, the GI50 was 1.8 µM and the TGI worked out at 3.86 µM.

On to `CC1=C(CCC=O)C2=C(C)C3(CC3)[C@@](C)(O)C(=O)C2=C1`, for which the GI50 is 0.11 µM with 786-0 renal; 0.269 µM with A498 renal; 0.159 µM with A549 NSCLC; 0.0789 µM in the experiment with ACHN renal; 0.0358 µM with BT-549 breast; 0.123 µM with CAKI-1 renal. In addition, the GI50 is 0.756 µM in the experiment on CCRF-CEM leukemia; 0.144 µM with COLO 205 colon; 0.0376 µM in the experiment on DU-145 prostate; 0.21 µM in the experiment with EKVX NSCLC; 0.121 µM in the experiment on HCC-2998 colon; 0.118 µM in the experiment on HL-60(TB) leukemia. Moreover, the GI50 with HS 578T breast is 0.302 µM; in the experiment on IGROV1 ovarian, 0.0625 µM; in the experiment with K-562 leukemia, 0.33 µM; with LOX IMVI melanoma, 0.14 µM; in the experiment with M14 melanoma it was 0.101 µM; in the experiment on MALME-3M melanoma it was 0.135 µM. The GI50 was 0.1 µM in the experiment on MDA-MB-468 breast; 0.38 µM with MOLT-4 leukemia; 0.157 µM in the experiment with NCI-H226 lung; 0.167 µM with NCI-H522 lung; 0.104 µM with NCI/ADR-RES ovarian; 0.0656 µM in the experiment on OVCAR-5 ovarian. For the same molecule, the GI50 in the experiment on RPMI-8226 leukemia is 0.444 µM; with RXF 393 renal, 0.0207 µM; with SF-295 CNS, 0.222 µM; with SK-MEL-5 melanoma, 0.0946 µM; in the experiment with SK-OV-3 ovarian, 0.108 µM; with SN12C renal, 0.167 µM. Further, the GI50 is 0.237 µM in the experiment with SR leukemia; 0.108 µM with T-47D breast; 0.218 µM in the experiment on TK-10 renal; 0.208 µM with UACC-257 melanoma; 0.158 µM with UACC-62 melanoma; 0.0534 µM with UO-31 renal. For the same molecule, the TGI in the experiment with 786-0 renal was 0.44 µM; in the experiment with A498 renal it was 0.616 µM; with A549 NSCLC it was 4.21 µM; in the experiment with ACHN renal, 0.636 µM; in the experiment on BT-549 breast it was 0.157 µM; in the experiment on CAKI-1 renal, 0.855 µM. For the same molecule, the TGI was more than 100 µM in the experiment with CCRF-CEM leukemia; 0.303 µM with COLO 205 colon; 0.845 µM with DU-145 prostate; 0.546 µM in the experiment with EKVX NSCLC; 0.261 µM with HCC-2998 colon; 1.28 µM with HS 578T breast. In addition, the TGI in the experiment on IGROV1 ovarian came out at 0.312 µM; in the experiment with LOX IMVI melanoma, 0.35 µM; with M14 melanoma it was 0.254 µM; with MALME-3M melanoma it was 0.266 µM; in the experiment with MDA-MB-468 breast it was 0.239 µM; in the experiment on NCI-H226 lung it was 0.587 µM. Further, the TGI was 0.369 µM in the experiment on NCI-H522 lung; 0.33 µM in the experiment with NCI/ADR-RES ovarian; 0.416 µM in the experiment on OVCAR-5 ovarian; more than 100 µM in the experiment with RPMI-8226 leukemia; 0.0394 µM in the experiment with RXF 393 renal; 1.11 µM with SF-295 CNS. In addition, the TGI came to 0.24 µM in the experiment with SK-MEL-5 melanoma; 0.606 µM with SK-OV-3 ovarian; 0.755 µM with SN12C renal; 1.12 µM with SR leukemia; 0.882 µM with T-47D breast; 1.08 µM in the experiment with TK-10 renal. In addition, the figures for the TGI with UACC-257 melanoma, in the experiment with UACC-62 melanoma and in the experiment with UO-31 renal were 0.464 µM, 0.315 µM and 0.263 µM, respectively.

For the molecule `N=C(N)c1ccc(-c2ccc(-c3cccs3)s2)nc1`, in the experiment on MDA-MB-468 breast, the GI50 is 0.0732 µM and the TGI was 0.779 µM.

Take `COCCNC(=O)c1ccc(-c2nc3ccc4[nH]ncc4c3c3c2CCCC3)cc1`: in the experiment on MDA-MB-468 breast, the GI50 was 2.46 µM and the TGI came out at 50 µM.

Take `CN1CCn2c(c(Sc3ccc(C(=O)NO)cc3)c3ccccc32)C1=O`: in the experiment on MDA-MB-468 breast, the GI50 was 1.43 µM and the TGI is 3.25 µM.

The record behind these values is PubChem BioAssay (NCI).
